Patent US20230285371A1 (THE SECOND XIANGYA HOSPITAL OF CENTRAL SOUTH UNIVERSITY, priority 2020, published 2023)
Values joined by “and” are separate entries in the source; they are usually repeats but may differ in a detail not shown here. Equal values may be shown once. Marks after values point to notes of the source that are not given here.

How the values were obtained:
Naive CD4+ T cells = assay: Cytotoxicity to T cells: cell count after 48 hours; assay type: cell-based, C57BL/6J mice
[1] = test system: female NOD mice (spontaneous type 1 diabetes); assay: Prevention of spontaneous type 1 diabetes in NOD mice; assay type: in vivo; conditions: spontaneous T1D
Source text: (§1) I. Materials and Methods • 1. Mice: The most widely used spontaneous type 1 diabetes mouse model for the study of type 1 diabetes—NOD mice were selected. Since the incidence rate of spontaneous type 1 diabetes in female NOD mice is much higher than that in male mice, female NOD mice were used for experiments in the present invention. The female NOD mice of the present invention were purchased from Shanghai Model Organisms Center, Inc. • 2. Preparation of medicine: Carboxymethylcellulose (CMC) was used as the solvent. […] Injection of cyclophosphamide: 300 mg/kg body weight of cyclophosphamide was injected into NOD mice so as to rapidly induce the onset of type 1 diabetes. • 5. Measurement of blood sugar: About 1 mm of the tail tip of the mice was cut off, the first drop of blood was wiped off with gauze, then the second drop of blood flew out naturally, which was drawn with a blood sugar test strip, and the reading was recorded. It can be diagnosed type 1 diabetes when two consecutive blood sugar readings were both >250 mg/dl. • 6. […] After 4 weeks of gavage, each mouse was injected with cyclophosphamide to induce the onset of type 1 diabetes, and the incidence rate of type 1 diabetes in the mice was observed and counted.

STAT4 and p-STAT4 = assay: STAT4 phosphorylation in IL-12-treated Naive CD4+ T cells, western blot; assay type: cell-based, C57BL/6J mice; conditions: IL-12, 48 hours
Protocol: The cells were collected after 48 hours to extract proteins for western blot (WB) to detect the protein levels of STAT4 and p-STAT4.

[2] = test system: CD4+ T cell subsets (Th1, Th2, Th17 and Treg) in the pancreas; assay: CD4+ T cell subsets in pancreas of NOD mice, flow cytometry; assay type: in vivo
Source text: (§2) From the age of 10 weeks, the mice were gavaged for 4 weeks, and injected with cyclophosphamide after the gavage for two weeks to induce the onset of the disease.

[3] = test system: female NOD mice (type 1 diabetes induced by cyclophosphamide); assay: Prevention of cyclophosphamide-induced type 1 diabetes in NOD mice; assay type: in vivo; conditions: cyclophosphamide-induced T1D
Source text: as §1

[4] = test system: differentiation of Th1 cells induced by IL-12 (Naive CD4+ T cells); assay: In vitro inhibition assay: IL-12-induced Th1 differentiation, flow cytometry; assay type: cell-based, C57BL/6J mice; conditions: for Th1 (%) Average / Th1 (%): IL-12, 48 hours; for Th1 (%) Average: average of 3 wells; for Th1 (%): individual parallel wells
Protocol: C57BL/6J mice were sacrificed, the spleen was taken and disrupted in PBS containing 2% fetal bovine serum (FBS). The cell suspension was filtered through a 70 μm nylon filter to remove tissue debris. The obtained cell suspension was centrifuged at 300 g for 10 min, and the cells were resuspended in PBS containing 2% fetal bovine serum (FBS) to maintain a cell concentration of 1×10^8 nucleated cells/mL. Naive CD4+ T cells were extracted with the EasySep™ Mouse Naive CD4+ T Cell Isolation Kit ([…] Technologies), and the extracted Naive CD4+ T cells were cultured in RPMI-1640 medium (Gibco) containing 10% fetal bovine serum (Gibco) and 1% penicillin/streptomycin (Gibco).
The cells were collected after 48 hours, and subjected to flow cytometry to detect the proportion of Th1 cells.

NOD mice (insulitis) = conditions: gavage once a day for 4 weeks from 8 weeks of age, nondiabetic mice, HE staining
[5] = test system: Th1 cell marker genes (Tbet and IFNγ) and pro-inflammatory cytokines (IL-1β, IL-6 and TNF-α) in the pancreas; assay: Gene expression in pancreas of NOD mice, RT-PCR; assay type: in vivo
Source text: as §2

[6] = Sorafenib group vs solvent group
[7] = gavage 4 weeks, cyclophosphamide after 2 weeks, individual values
[8] = relative to vehicle, individual mice

Q: For Sorafenib, which “Th0 (×10^4) Average” value (Naive CD4+ T cells; Sorafenib 1 μg/ml, 0 μg/ml control 9.47) is on record?
A: Its value is 9.33 ×10^4.

Q: What about the “Th0 (×10^4) Average” value (Naive CD4+ T cells; Sorafenib 2 μg/ml) of the same substance?
A: Its value is 8.1 ×10^4.

Q: And the “Th0 (×10^4) Average” value (Naive CD4+ T cells; Sorafenib 4 μg/ml)?
A: The value was 8 ×10^4.

Q: And the “Survival rate (%)” value ([1]; 10 mg/kg gavage once a day for 12 weeks, day 98)?
A: Its value is 91.30%.

Q: What about the “Survival rate (%)” value ([1]; 10 mg/kg gavage once a day for 12 weeks, day 119) of the same substance?
A: The value was 73.91%.

Q: What about the “Survival rate (%)” value ([1]; 10 mg/kg gavage once a day for 12 weeks, day 140) of the same substance?
A: Its value is 65.22%.

Q: And the “Survival rate (%)” value ([1]; 10 mg/kg gavage once a day for 12 weeks, day 154)?
A: Its value is 60.87%.

Q: And the “Survival rate (%)” value ([1]; 10 mg/kg gavage once a day for 12 weeks, day 168)?
A: The value was 52.17%.

Q: What about the “Survival rate (%)” value ([1]; 10 mg/kg gavage once a day for 12 weeks, day 224, P<0.1 vs vehicle (25)) of the same substance?
A: Its value is 52.17^+ %.

Q: What about the “Survival rate (%)” value ([1]; 10 mg/kg gavage once a day from 8 weeks of age for 12 weeks, n=23, day 0) of the same substance?
A: The value was 100%.

Q: What about the “incidence rate of type 1 diabetes” value ([1]; at 32 weeks of age, CMC group 75%) of the same substance?
A: Its value is 48%.

Q: What about the “effect on phosphorylation of STAT4” value (STAT4 and p-STAT4) of the same substance?
A: Its value is “can inhibit the phosphorylation of STAT4”.

Q: What about the “proportion of Th1 cells in the pancreas” value [2, 6] of the same substance?
A: Its value is “significantly reduced”.

Q: What about the “proportions of other T cell subsets in the pancreas” value [2, 6] of the same substance?
A: Its value is “remained unchanged”.

Q: And the “Th1 (%) in pancreas” value ([2]; gavage 4 weeks from 10 weeks of age, cyclophosphamide after 2 weeks, individual values)?
A: The value was 6.63% and 3.58%.

Q: And the “Th1 (%) in pancreas, Average” value ([2]; gavage 4 weeks, cyclophosphamide after 2 weeks, P<0.05 vs vehicle (21.2))?
A: The value was 5.11* %.

Q: What about the “Th2 (%) in pancreas” value [2, 7] of the same substance?
A: The value was 9.75% and 12.9% and 7.91%.

Q: What about the “Th17 (%) in pancreas” value [2, 7] of the same substance?
A: Its value is 3.28% and 0.68% and 1.19%.

Q: And the “Tregs (%) in pancreas” value [2, 7]?
A: The value was 4.6% and 4.31% and 2.25% and 4.37%.

Q: And the “Th17 (%) in pancreas, Average” value ([2]; gavage 4 weeks, cyclophosphamide after 2 weeks, vehicle 1.31)?
A: The value was 1.72%.

Q: What about the “Tregs (%) in pancreas, Average” value ([2]; gavage 4 weeks, cyclophosphamide after 2 weeks, vehicle 4.345) of the same substance?
A: Its value is 3.88%.

Q: And the “Th2 (%) in pancreas, Average” value ([2]; gavage 4 weeks, cyclophosphamide after 2 weeks, vehicle 9.45)?
A: The value was 10.19%.

Q: And the “Survival rate (%)” value ([3]; 10 mg/kg gavage for 7 weeks, day 105)?
A: Its value is 94.12%.

Q: And the “Survival rate (%)” value ([3]; 10 mg/kg gavage for 7 weeks, day 112)?
A: Its value is 88.24%.

Q: What about the “Survival rate (%)” value ([3]; 10 mg/kg gavage for 7 weeks, day 119) of the same substance?
A: The value was 82.35%.

Q: And the “Survival rate (%)” value ([3]; 10 mg/kg gavage for 7 weeks, day 126)?
A: Its value is 76.47%.

Q: And the “Survival rate (%)” value ([3]; 10 mg/kg gavage for 7 weeks, day 140, P<0.05 vs vehicle (35.71))?
A: Its value is 76.47* %.

Q: What about the “Survival rate (%)” value ([3]; 10 mg/kg gavage once a day from 8 weeks of age for 7 weeks, cyclophosphamide 300 mg/kg after 4 weeks, n=17, day 0) of the same substance?
A: The value was 100%.

Q: What about the “preventive effect still existed after the gavage was stopped, lasted to” value ([3]; gavage stopped after 7 weeks) of the same substance?
A: Its value is 20 weeks.

Q: And the “incidence rate of type 1 diabetes” value ([3]; more than half of the CMC group developed T1D)?
A: Its value is 24%.

Q: What about the “effect on IL-12-induced Th1 differentiation” value ([4]; 0, 1, 2, 4 μg/ml, 48 hours) of the same substance?
A: Its value is “inhibit IL-12-induced Th1 differentiation in a dose-dependent manner”.

Q: And the “Th1 (%) Average” value ([4]; Sorafenib 1 μg/ml, 0 μg/ml control 85.27)?
A: The value was 80.43%.

Q: What about the “Th1 (%)” value ([4]; Sorafenib 1 μg/ml) of the same substance?
A: The value was 77.9% and 76% and 87.4%.

Q: What about the “Th1 (%) Average” value ([4]; Sorafenib 2 μg/ml, P<0.01 vs 0 μg/ml) of the same substance?
A: The value was 68.53** %.

Q: What about the “Th1 (%)” value ([4]; Sorafenib 2 μg/ml) of the same substance?
A: The value was 67.8% and 68.5% and 69.3%.

Q: What about the “Th1 (%) Average” value ([4]; Sorafenib 4 μg/ml, P<0.001 vs 0 μg/ml) of the same substance?
A: The value was 15.66*** %.

Q: And the “Th1 (%)” value ([4]; Sorafenib 4 μg/ml)?
A: The value was 24.9% and 12.9% and 9.17%.

Q: And the “insulitis compared with the CMC group” value (NOD mice (insulitis))?
A: Its value is “significantly improved”.

Q: And the “IFNγ gene expression level in pancreas, Average” value ([5]; P<0.05 vs vehicle (1))?
A: Its value is 0.27*.

Q: What about the “Il-1β gene expression level in pancreas, Average” value ([5]; P<0.05 vs vehicle (1)) of the same substance?
A: The value was 0.37*.

Q: And the “TNFα gene expression level in pancreas, Average” value ([5]; P<0.05 vs vehicle (1))?
A: Its value is 0.27*.

Q: What about the “Tbet gene expression level in pancreas, Average” value ([5]; P<0.1 vs vehicle (1.04)) of the same substance?
A: Its value is 0.44^+.

Q: What about the “gene expression levels of Th1 cell marker genes (Tbet and IFNγ) and pro-inflammatory cytokines (IL-1β, IL-6 and TNF-α) in the pancreas” value [5, 6] of the same substance?
A: The value was “significantly reduced”.

Q: What about the “IFNγ gene expression level in pancreas” value [5, 8] of the same substance?
A: The value was 0.16 and 0.07 and 0.58.

Q: And the “IL-6 gene expression level in pancreas” value [5, 8]?
A: Its value is 0.64 and 0.12.

Q: And the “Il-1β gene expression level in pancreas” value [5, 8]?
A: Its value is 0.48 and 0.18 and 0.46.

Q: And the “TNFα gene expression level in pancreas” value [5, 8]?
A: The value was 0.18 and 0.07 and 0.55.

Q: What about the “Tbet gene expression level in pancreas” value [5, 8] of the same substance?
A: The value was 0.27 and 0.2 and 0.86.

Q: What about the “IL-6 gene expression level in pancreas, Average” value ([5]; vehicle 1) of the same substance?
A: The value was 0.38.
